Test results published in patent US6531472B2, “Tetralone derivatives” (Hoffman-La Roche Inc., priority 2000, dated 2003).

Test system: HDAC
Experiment: HDAC inhibition screening assay using an aminocoumarin derivative of an omega-acetylated lysine as substrate
Type: biochemical
Settings: compound concentration 10 nM
Protocol: To measure the HDAC inhibitory properties of the compounds of the invention a screening assay was established using an aminocoumarin derivative of an omega-acetylated lysine as substrate for the enzyme. […] Using the protocol described therein, the inhibitory effect of the new compounds was determined at a concentration of 10 nM.

| Compound | Inhibitory effect at 10 nM in % [%] |
| --- | --- |
| CCOC(=O)C1(CCCCCCCC(=O)NO)CCc2c(C)cc(C)cc2C1=O (stereo not drawn) [Example 10, 2-(7-Hydroxycarbamoyl-heptyl)-5,7-dimethyl-1-oxo-1,2,3,4-tetrahydro-naphtalene-2-carboxylic acid ethyl ester] | 55 |
| CC1(CCCCCC(=O)NO)CCc2ccccc2C1=O (stereo not drawn) [Example 4, 6-(2-methyl-1-oxo-1,2,3,4-tetrahydro-naphthalen-2-yl)-hexanoic acid hydroxyamide] | 71 |
| COc1cccc2c1CCC(CCCCCC(=O)NO)C2=O (stereo not drawn) [Example 8] | 72 |
| CCOC(=O)C1(CCCCCC(=O)NO)CCc2c(OC)cccc2C1=O (stereo not drawn) [Example 9, 2-(5-hydroxycarbamoyl-pentyl)-5-methoxy-1-oxo-1,2,3,4-tetrahydro-naphtalene-2-carboxyclic acid ethyl ester] | 57 |
| CC1(/C=C/CCCC(=O)NO)CCc2ccccc2C1=O (stereo not drawn) [Example 7, 6-(2-methyl-1-oxo-1,2,3,4-tetrahydro-naphthalen-2-yl)-hex-5-enoic acid hydroxyamide] | 60 |
| COc1ccc2c(c1)CCC(CCCCC(=O)NO)C2=O (stereo not drawn) [Example 2, 5-(6-methoxy-1-oxo-1,2,3,4-tetrahydro-naphthalen-2-yl)-pentanoic acid hydroxyamide] | 64 |
